± gives the standard deviation of the averaged measurements.
Each test system was assayed with CC(=O)N1CCc2c(c(N3CCCc4cc(-c5cnn(C)c5)c(C(F)F)cc43)nn2C2CCC(CN3CCN(c4ccc5c(c4)C(=O)N(C4CCC(=O)NC4=O)C5=O)CC3)CC2)C1 [CBPD-409] (assay: AUC of viability dose-response curve (relative to vehicle, 8 doses up to 10 µM) (fraction); higher = less sensitive (more viable); extreme values may be limits of the assay).
Method: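 PRISM multiplexed pooled barcoded cell line viability screen at the Broad Institute, 887 cancer cell lines treated with CBPD-409 (p300/CBP PROTAC degrader) at 8 concentrations in threefold dilution, top dose 10 µM. The read-out is the area under the dose-response curve of relative viability versus vehicle (n=3). AUC < 0.3 is called strongly sensitive and AUC > 0.8 resistant.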
For OCIC4P_OVARY, the “AUC of viability dose-response curve” value was 0.99. For OCIC5X_OVARY, the “AUC of viability dose-response curve” value was 0.69. For “OCILY3_HAEMATOPOIETIC_AND_LYMPHOID_TISSUE”, the “AUC of viability dose-response curve” value was 0.617. In the case of “OCILY18_HAEMATOPOIETIC_AND_LYMPHOID_TISSUE”, the “AUC of viability dose-response curve” value is reported as 0.451. “OCILY19_HAEMATOPOIETIC_AND_LYMPHOID_TISSUE” was tested, and the “AUC of viability dose-response curve” value was 0.725. With “OCILY132_HAEMATOPOIETIC_AND_LYMPHOID_TISSUE” the “AUC of viability dose-response curve” value was 1. For “OCIM1_HAEMATOPOIETIC_AND_LYMPHOID_TISSUE”, the “AUC of viability dose-response curve” value was 0.286. For OCIP5X_OVARY, the “AUC of viability dose-response curve” value was 1. OCUG1_BILIARY_TRACT was tested, and the “AUC of viability dose-response curve” value was 1. OE19_OESOPHAGUS was tested, and the “AUC of viability dose-response curve” value was 0.884. With OE21_OESOPHAGUS the “AUC of viability dose-response curve” value was 1. For OE33_OESOPHAGUS, the “AUC of viability dose-response curve” value was 0.776. In the case of ONCODG1_OVARY, the “AUC of viability dose-response curve” value is reported as 1. For ONDA9_CENTRAL_NERVOUS_SYSTEM, the “AUC of viability dose-response curve” value was 1. In the case of ONS76_CENTRAL_NERVOUS_SYSTEM, the “AUC of viability dose-response curve” value is reported as 0.922 ± 0.11. OSC20_UPPER_AERODIGESTIVE_TRACT was tested, and the “AUC of viability dose-response curve” value was 0.936. With OSRC2_KIDNEY the “AUC of viability dose-response curve” value was 1. In the case of OV7_OVARY, the “AUC of viability dose-response curve” value is reported as 1. OV17R_OVARY was tested, and the “AUC of viability dose-response curve” value was 0.712. For OV56_OVARY, the “AUC of viability dose-response curve” value was 1. OVCAR8_OVARY was tested, and the “AUC of viability dose-response curve” value was 0.486. For OVISE_OVARY, the “AUC of viability dose-response curve” value was 1. With OVK18_OVARY the “AUC of viability dose-response curve” value was 0.365. OVKATE_OVARY was tested, and the “AUC of viability dose-response curve” value was 1. With OVTOKO_OVARY the “AUC of viability dose-response curve” value was 0.781. With OZ_BILIARY_TRACT the “AUC of viability dose-response curve” value was 0.851. With “P12ICHIKAWA_HAEMATOPOIETIC_AND_LYMPHOID_TISSUE” the “AUC of viability dose-response curve” value was 0.739. PA1_OVARY was tested, and the “AUC of viability dose-response curve” value was 1. With PACADD119_PANCREAS the “AUC of viability dose-response curve” value was 0.991. With PACADD137_PANCREAS the “AUC of viability dose-response curve” value was 0.587. With PACADD161_PANCREAS the “AUC of viability dose-response curve” value was 0.652. For PANC1_PANCREAS, the “AUC of viability dose-response curve” value was 0.999. In the case of PANC0203_PANCREAS, the “AUC of viability dose-response curve” value is reported as 0.751. For PANC0327_PANCREAS, the “AUC of viability dose-response curve” value was 1. For PANC0403_PANCREAS, the “AUC of viability dose-response curve” value was 0.725. In the case of PANC0504_PANCREAS, the “AUC of viability dose-response curve” value is reported as 0.671. For PANC0813_PANCREAS, the “AUC of viability dose-response curve” value was 0.953. For PANC1005_PANCREAS, the “AUC of viability dose-response curve” value was 1. With PATU8902_PANCREAS the “AUC of viability dose-response curve” value was 0.689. For PATU8988S_PANCREAS, the “AUC of viability dose-response curve” value was 0.253. In the case of PATU8988T_PANCREAS, the “AUC of viability dose-response curve” value is reported as 0.499. In the case of PC3_PROSTATE, the “AUC of viability dose-response curve” value is reported as 0.763. PC14_LUNG was tested, and the “AUC of viability dose-response curve” value was 0.877. With PEA1_OVARY the “AUC of viability dose-response curve” value was 0.845. In the case of PECAPJ15_UPPER_AERODIGESTIVE_TRACT, the “AUC of viability dose-response curve” value is reported as 0.917. “PECAPJ41CLONED2_UPPER_AERODIGESTIVE_TRACT” was tested, and the “AUC of viability dose-response curve” value was 0.662. In the case of PECAPJ49_UPPER_AERODIGESTIVE_TRACT, the “AUC of viability dose-response curve” value is reported as 0.455. PEDS005TSUSP_KIDNEY was tested, and the “AUC of viability dose-response curve” value was 0.309. “PF382_HAEMATOPOIETIC_AND_LYMPHOID_TISSUE” was tested, and the “AUC of viability dose-response curve” value was 0.566. In the case of PFSK1_CENTRAL_NERVOUS_SYSTEM, the “AUC of viability dose-response curve” value is reported as 0.531. For PK1_PANCREAS, the “AUC of viability dose-response curve” value was 0.685. For PK8_PANCREAS, the “AUC of viability dose-response curve” value was 0.556. With PK45H_PANCREAS the “AUC of viability dose-response curve” value was 1. For PK59_PANCREAS, the “AUC of viability dose-response curve” value was 0.694. With PL21_HAEMATOPOIETIC_AND_LYMPHOID_TISSUE the “AUC of viability dose-response curve” value was 0.499. For PLCPRF5_LIVER, the “AUC of viability dose-response curve” value was 1. PMFKO14_LARGE_INTESTINE was tested, and the “AUC of viability dose-response curve” value was 0.705. For PSN1_PANCREAS, the “AUC of viability dose-response curve” value was 0.639. For QGP1_PANCREAS, the “AUC of viability dose-response curve” value was 0.661. With RBE_BILIARY_TRACT the “AUC of viability dose-response curve” value was 1. For RCC10RGB_KIDNEY, the “AUC of viability dose-response curve” value was 1. In the case of “RCHACV_HAEMATOPOIETIC_AND_LYMPHOID_TISSUE”, the “AUC of viability dose-response curve” value is reported as 0.298. With RCK8_HAEMATOPOIETIC_AND_LYMPHOID_TISSUE the “AUC of viability dose-response curve” value was 0.633. With RCM1_LARGE_INTESTINE the “AUC of viability dose-response curve” value was 1. In the case of RDES_BONE, the “AUC of viability dose-response curve” value is reported as 0.484. RD_SOFT_TISSUE was tested, and the “AUC of viability dose-response curve” value was 0.657 ± 0.29. With RERFGC1B_STOMACH the “AUC of viability dose-response curve” value was 0.993. RERFLCAD1_LUNG was tested, and the “AUC of viability dose-response curve” value was 1. With RERFLCAD2_LUNG the “AUC of viability dose-response curve” value was 0.946. In the case of RERFLCAI_LUNG, the “AUC of viability dose-response curve” value is reported as 0.913. For RERFLCKJ_LUNG, the “AUC of viability dose-response curve” value was 1. With RERFLCMS_LUNG the “AUC of viability dose-response curve” value was 0.837.

Reference: the supplement of paper PMC12513837
